Reference: PubChem BioAssay (NCI)
Values joined by “and” are separate entries in the source; they are usually repeats but may differ in a detail not shown here. Identical values can stand only once.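 Compound exposure: 48 hours, 5 concentrations, 96-well plates. GI50 is the concentration that inhibits growth by half. Definition used: TGI = concentration required for complete inhibition of growth.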

Key:
Assay in all cases: DTP human tumour cell line panel, 48 h
ACHN renal = test system: ACHN renal
RXF 393 renal = test system: RXF 393 renal
CAKI-1 renal = test system: CAKI-1 renal
M14 melanoma = test system: M14 melanoma
SK-MEL-2 melanoma = test system: SK-MEL-2 melanoma
MDA-N = test system: MDA-N
SNB-75 CNS = test system: SNB-75 CNS
PC-3 prostate = test system: PC-3 prostate
SNB-78 CNS = test system: SNB-78 CNS
SR leukemia = test system: SR leukemia
HCC-2998 colon = test system: HCC-2998 colon
OVCAR-4 ovarian = test system: OVCAR-4 ovarian
RPMI-8226 leukemia = test system: RPMI-8226 leukemia
HL-60(TB) leukemia = test system: HL-60(TB) leukemia
786-0 renal = test system: 786-0 renal
MOLT-4 leukemia = test system: MOLT-4 leukemia
MALME-3M melanoma = test system: MALME-3M melanoma
CCRF-CEM leukemia = test system: CCRF-CEM leukemia
SN12C renal = test system: SN12C renal
SF-539 CNS = test system: SF-539 CNS
HT29 colon = test system: HT29 colon
M19-MEL melanoma = test system: M19-MEL melanoma
K-562 leukemia = test system: K-562 leukemia
KM20L2 colon = test system: KM20L2 colon
SK-MEL-5 melanoma = test system: SK-MEL-5 melanoma
COLO 205 colon = test system: COLO 205 colon
HCT-116 colon = test system: HCT-116 colon
SK-MEL-28 melanoma = test system: SK-MEL-28 melanoma
A498 renal = test system: A498 renal
SNB-19 CNS = test system: SNB-19 CNS
OVCAR-5 ovarian = test system: OVCAR-5 ovarian
SF-295 CNS = test system: SF-295 CNS
HOP-18 NSCLC = test system: HOP-18 NSCLC
NCI-H23 lung = test system: NCI-H23 lung
SW-620 colon = test system: SW-620 colon
OVCAR-3 ovarian = test system: OVCAR-3 ovarian
MDA-MB-435 = test system: MDA-MB-435
A549 NSCLC = test system: A549 NSCLC
DMS 114 small cell lung = test system: DMS 114 small cell lung
DLD-1 colon = test system: DLD-1 colon
HOP-62 NSCLC = test system: HOP-62 NSCLC
UO-31 renal = test system: UO-31 renal
UACC-62 melanoma = test system: UACC-62 melanoma
HCT-15 colon = test system: HCT-15 colon
KM12 colon = test system: KM12 colon
HOP-92 NSCLC = test system: HOP-92 NSCLC
OVCAR-8 ovarian = test system: OVCAR-8 ovarian
LXFL 529 NSCLC = test system: LXFL 529 NSCLC
MDA-MB-231 breast = test system: MDA-MB-231 breast
UACC-257 melanoma = test system: UACC-257 melanoma
LOX IMVI melanoma = test system: LOX IMVI melanoma
MCF7 breast = test system: MCF7 breast
SF-268 CNS = test system: SF-268 CNS
IGROV1 ovarian = test system: IGROV1 ovarian
TK-10 renal = test system: TK-10 renal
U251 CNS = test system: U251 CNS
EKVX NSCLC = test system: EKVX NSCLC
NCI-H522 lung = test system: NCI-H522 lung
SK-OV-3 ovarian = test system: SK-OV-3 ovarian
NCI-H226 lung = test system: NCI-H226 lung
NCI-H460 lung = test system: NCI-H460 lung
RXF-631 renal = test system: RXF-631 renal

With CN1CCN(CCn2c3c4ccccc4ccc3c3oc(=O)c4ccccc4c32)CC1 the TGI (ACHN renal) was 7.42 µM, the GI50 (RXF 393 renal) was 5.75 µM and the TGI (RXF 393 renal) was > 1 µM and 19.9 µM. For the same compound, the TGI (CAKI-1 renal) was 16.7 µM, the GI50 (M14 melanoma) was 1.94 µM and the TGI (M14 melanoma) was 3.43 µM and 3.29 µM. The TGI (SK-MEL-2 melanoma) was 27.7 µM, the TGI (MDA-N) was 2.95 µM and the TGI (SNB-75 CNS) was 16.6 µM. For the same compound, the TGI (PC-3 prostate) was 4.59 µM, the TGI (SNB-78 CNS) was 16.4 µM and the TGI (SR leukemia) was 3.13 µM. For the same compound, the GI50 (HCC-2998 colon) was 4.22 µM, the TGI (HCC-2998 colon) was 3.74 µM and 18.7 µM and the TGI (OVCAR-4 ovarian) was 6.85 µM. For the same compound, the GI50 (RPMI-8226 leukemia) was 1.84 µM, the TGI (RPMI-8226 leukemia) was 3.79 µM and 15 µM and the TGI (HL-60(TB) leukemia) was 3.47 µM. For the same compound, the GI50 (786-0 renal) was 1.96 µM, the TGI (786-0 renal) was 3.76 µM and 4.07 µM and the TGI (MOLT-4 leukemia) was 3.2 µM and 4.38 µM. The TGI (MALME-3M melanoma) was 29.3 µM, the TGI (CCRF-CEM leukemia) was 3.2 µM and 3.94 µM and the GI50 (SN12C renal) was 4.44 µM. The TGI (SN12C renal) was 3.05 µM, the TGI (SF-539 CNS) was 3.47 µM and 3.08 µM and the GI50 (HT29 colon) was 1.65 µM. The TGI (HT29 colon) was 3.3 µM and 2.71 µM, the TGI (M19-MEL melanoma) was 24.7 µM and the TGI (K-562 leukemia) was 2.89 µM and 4.29 µM. For the same compound, the TGI (KM20L2 colon) was 7.79 µM, the TGI (SK-MEL-5 melanoma) was 3.41 µM and the GI50 (COLO 205 colon) was 2 µM. For the same compound, the TGI (COLO 205 colon) was 3.4 µM and 5.14 µM, the GI50 (HCT-116 colon) was 1.55 µM and the TGI (HCT-116 colon) was 2.88 µM and 3.79 µM. For the same compound, the GI50 (SK-MEL-28 melanoma) was 1.99 µM, the TGI (SK-MEL-28 melanoma) was 3.47 µM and 9.37 µM and the GI50 (A498 renal) was 18.7 µM. For the same compound, the TGI (A498 renal) was 38.3 µM, the GI50 (SNB-19 CNS) was 1.5 µM and the TGI (SNB-19 CNS) was 7.24 µM and 10.9 µM. For the same compound, the TGI (OVCAR-5 ovarian) was 10.4 µM, the GI50 (SF-295 CNS) was 1.88 µM and the TGI (SF-295 CNS) was 4.5 µM and 9.45 µM. The TGI (HOP-18 NSCLC) was 25.1 µM, the GI50 (NCI-H23 lung) was 1.92 µM and the TGI (NCI-H23 lung) was 3.72 µM and 15.7 µM. For the same compound, the TGI (SW-620 colon) was 4.29 µM and 5.33 µM, the TGI (OVCAR-3 ovarian) was 23.7 µM and the TGI (MDA-MB-435) was 3.35 µM. For the same compound, the GI50 (A549 NSCLC) was 2.91 µM, the TGI (A549 NSCLC) was 8.92 µM and 8.94 µM and the TGI (DMS 114 small cell lung) was 3.84 µM. For the same compound, the TGI (DLD-1 colon) was 6.13 µM, the GI50 (HOP-62 NSCLC) was 10.1 µM and the TGI (HOP-62 NSCLC) was 4.65 µM and 23.7 µM. It also gave a GI50 (UO-31 renal) of 3.08 µM, a TGI (UO-31 renal) of 11.9 µM and a GI50 (UACC-62 melanoma) of 2.14 µM. For the same compound, the TGI (UACC-62 melanoma) was 4.74 µM and 5.11 µM, the GI50 (HCT-15 colon) was 1.61 µM and the TGI (HCT-15 colon) was 3.21 µM and 7.92 µM. The GI50 (KM12 colon) was 2.13 µM, the TGI (KM12 colon) was 4.54 µM and 6.56 µM and the GI50 (HOP-92 NSCLC) was 3.44 µM. For the same compound, the TGI (HOP-92 NSCLC) was 17 µM, the GI50 (OVCAR-8 ovarian) was 2.32 µM and the TGI (OVCAR-8 ovarian) was 5.13 µM and 3.37 µM. The TGI (LXFL 529 NSCLC) was 8.07 µM, the TGI (MDA-MB-231 breast) was 3.59 µM and the GI50 (UACC-257 melanoma) was > 1 µM. The TGI (UACC-257 melanoma) was > 1 µM and 2.96 µM, the GI50 (LOX IMVI melanoma) was 1.61 µM and 4.84 µM and the TGI (MCF7 breast) was 3.03 µM. For the same compound, the GI50 (SF-268 CNS) was 5.03 µM, the TGI (SF-268 CNS) was 14 µM and the GI50 (IGROV1 ovarian) was > 1 µM. For the same compound, the TGI (IGROV1 ovarian) was > 1 µM and 31.1 µM, the TGI (TK-10 renal) was 22.5 µM and the TGI (U251 CNS) was 6.25 µM and 6.92 µM. The TGI (EKVX NSCLC) was 25.5 µM, the GI50 (NCI-H522 lung) was 1.68 µM and the TGI (NCI-H522 lung) was 3.29 µM and 10.4 µM. For the same compound, the TGI (SK-OV-3 ovarian) was 27.4 µM, the TGI (NCI-H226 lung) was 33.5 µM and the GI50 (NCI-H460 lung) was 1.46 µM. For the same compound, the TGI (NCI-H460 lung) was 4.09 µM and 2.95 µM and the TGI (RXF-631 renal) was 17.8 µM.
